pEC50, pKd: −log10 of the molar value. Non-standard residues stand in square brackets, D forms with d. Residues, ends and D or L forms follow the SMILES beside them.
Assays:
Aβ(1–42) = target: T1, Aβ(1–42) (Homo sapiens, UniProt P05067); assay: Aβ aggregation inhibition ELISA; format: biochemical; details: 400 nM Aβ(1–42), 500 mM Tris pH 7.4, 23 h, 37°C, aggregate-specific ELISA, logistic fit, three independent experiments; read-out: EC50 of inhibition of Aβ aggregate formation
T1 construct: Aβ(1–42), N-terminally biotinylated Aβ(1–42) and FITC-Aβ(1–42) were purchased from Bachem; purchased Bachem (Heidelberg, Germany)
Procedure: Freshly dissolved monomeric Aβ(1–42) (400 nM in 500 mM Tris-buffer pH 7.4) was incubated with and without DB peptides in different concentrations (0.01, 0.05, 0.1, 0.5, 1, 5, 10, 50 and 100 μM for DB3 or half of the molar concentrations in case of DB3DB3) in a humidity chamber for 23 h at 37°C. The aggregation was analyzed by an enzyme-linked immunosorbent assay (ELISA). NP27 antibody in bicarbonate/carbonate buffer was used to coat the ELISA plate overnight. Then the plate was washed in PBS-Tween buffer (1x PBS + 0.05% Tween) and blocked for 2 h at room temperature with 5% casein buffer. After washing, Aβ aggregate solutions were added to the plate and incubated for 1 h at room temperature. The plate was washed again and bound Aβ aggregates were detected by biotinylated 6E10/HRP-avidin mediated immunoreaction (BioLegend, San Diego, CA USA) using TMB as detection reagent. […] Mean value and standard error were calculated from three independent experiments. EC50 was calculated by fitting the data to a logistic dose response function.
Fig 5 Inhibition of Aβ fibril formation and Aβ aggregation disassemble by DB3 and DB3DB3. A) Monomeric Aβ(1–42) (400 nM) was mixed with different concentrations of DB3 (0.01, 0.05, 0.1, 0.5, 1, 5, 10, 50, 100 μM) and the aggregation state of Aβ was analyzed using an Aβ aggregate specific ELISA. […] All data were determined in triplicate. […]

PC12 cells = assay: MTT cell viability assay; format: cell-based, rat; details: 5 μM peptide without Aβ, 24 h
Procedure: Rat pheochromocytoma PC12 cells (Leibniz Institute DSMZ, Braunschweig, Germany) were cultivated in DMEM medium supplemented with 10% fetal bovine serum and 5% horse serum. 10,000 cells per well were seeded on collagen-coated 96 well plates (Gibco, Life technology, Carlsberg, USA) and incubated in a 95% humidified atmosphere with 5% CO2 at 37°C for 24 h. […] DB peptide was then added at different concentrations and incubated for further 40 min at 21°C and 600 rpm agitation before addition to the PC12 cells. […] Cell viability was then measured using the Cell proliferation Kit I (MTT) (Roche, Basel, Switzerland) according to the manufacturer’s instruction. The absorbance of the formazan product was determined by measuring at 570 nm after subtracting the absorption at 660 nm. For absorption measurements, a Polarstar Optima plate reader (BMG, Offenburg, Germany) was used. All results were normalized to cells that were treated with buffer only.
The cell viability assay was performed using PC12 cells in a MTT test. […] The absorption of buffer treated cells was set to 100% cell viability. […] The Mann-Whitney-U-test was used for statistical analysis. * p < 0.05; ** p < 0.01; *** p < 0.001.

Aβ(1–42) monomers = target: T2, Aβ(1–42) monomers (Homo sapiens, UniProt P05067); assay: Biolayer interferometry (BLI) KD determination; format: binding; details: N-terminally biotinylated Aβ(1–42) immobilised on streptavidin biosensors, 20 mM sodium phosphate pH 7.4, steady state, Langmuir 1:1 model, mean ± SD of triplicate
T2 construct: N-terminally biotinylated Aβ(1–42) monomers were immobilized on streptavidin biosensors; purchased Bachem (Heidelberg, Germany)
Procedure: BLI experiments were performed using an Octet RED96 instrument (fortéBIO, PALL Life Science, Menlo Park, USA). N-terminally biotinylated Aβ(1–42) was dissolved in HFIP, lyophilized and dissolved in 2 mM aqueous sodium hydroxide (1 mg/ml) in order to destroy any pre-existing aggregates. The Aβ(1–42) solution was neutralized by dilution in running buffer (20 mM sodium phosphate buffer, pH 7.4) to a final concentration of 20 μg/ml and directly immobilized on Super Streptavidin biosensors (SSA) (fortéBIO, PALL Life Science, Menlo Park, USA) to a final depth of 3 nm. Ligand biosensors and reference biosensors were quenched with 20 μg/ml biotin for 7 min.
For KD determinations, the binding of a dilution series of DB3 (200, 100, 50, 25, 12.5, 6.25, 3.125 μM) or DBDB3 (20, 10, 5, 2.5, 1.25, 0.625, 0.3125 μM) was detected in parallel to the ligand biosensors and reference biosensors. A separate buffer cycle was used for double referencing. […]
Fig 4 KD determination of DB3 and DB3DB3 to monomeric Aβ using biolayer interferometry (BLI). N-terminally biotinylated Aβ(1–42) monomers were immobilized on streptavidin biosensors and the binding of DB3 and DB3DB3 was detected. Representative double referenced sensorgrams of a dilution series of DB3 (A) and DB3DB3 (B) are shown, including the equilibrium dissociation constants (KD) as means ± SD of data recorded in triplicate. […]

T1 sequence (P05067 672-713 limits assumed): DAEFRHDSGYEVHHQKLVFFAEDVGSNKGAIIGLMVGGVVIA
T2 sequence (P05067 672-713 limits assumed): as above

- pEC50 (Aβ(1–42)): 5.22
- pKd (Aβ(1–42) monomers): 4.13
Compound: CC[C@@H](C)[C@@H](NC(=O)[C@H]1CCCN1C(=O)[C@H](N)CCCNC(=N)N)C(=O)N[C@@H](C(=O)N[C@H](CCCNC(=N)N)C(=O)N[C@H](CC(C)C)C(=O)N[C@H](CCCNC(=N)N)C(=O)N[C@@H](C(=O)N[C@H](Cc1c[nH]cn1)C(=O)N[C@H](CCC(N)=O)C(=O)N[C@H](CC(N)=O)C(=O)N[C@H](CCCNC(=N)N)C(N)=O)[C@H](C)O)[C@H](C)O [DB3] (H-[dR][dP][dI][dT][dR][dL][dR][dT][dH][dQ][dN][dR]-NH2)
- effect of peptide alone on PC12 cell viability (PC12 cells): not toxic
